Reference: publication PMC8344021, “Discovery of Small Molecule Bak Activator for Lung Cancer Therapy” (Theranostics, 2021)

What was measured:
[1] = test system: A549-IRR xenografts; test: Radioresistant A549-IRR xenografts, tumor growth; assay type: in vivo, Nu/Nu nude mice; conditions: 15 mg/kg/d, 4 weeks
Experimental: Six-week-old female Nu/Nu nude mice were purchased from Envigo (Indianapolis, IN) and housed under pathogen-free conditions in microisolator cages. The animal propagation protocol was approved by the Emory Institutional Animal Care and Use Committee (IACUC) and the Emory Animal Ethics Committee. 3×10^6 lung cancer cells were injected into subcutaneous tissue in the flank region of nude mice. The tumors were allowed to grow to an average volume of 150~200 mm^3 prior to initiation of therapy as previously described, [29]. Patient-derived xenografts (PDXs, TKO-002 and TKO-005) were established as part of an IRB-approved phase II co-clinical trial of arsenic trioxide in patients with relapsed SCLC who had failed standard platinum-based chemotherapy. Tumor samples were obtained by image-guided biopsy and were directly implanted into Nu/Nu nude mice without intervening propagation in plastic culture plates. Direct serial propagation of growing tumor occurred for up to 5 generations. […] During treatment, tumor volume (V) was measured by caliper measurements once every two days as described previously. […]
Figure S7. […] (A) Expression levels of Bak in A549-P versus A549-IRR cells, H358-P versus H358 -IRR cells or H460-P versus H460-IRR cells were analyzed by Western blot. […]
Tumor volume was measured once every 2 days. After treatment, mice were sacrificed and tumors were removed and analyzed. […]

[2] = test system: MDA-MB-231, MCF7, HCT-116, Ramos, OPM-1, PANC-1 and U2OS cell lines; test: Dynamic BH3 profiling in other types of cancer cell lines; assay type: cell-based, human; conditions: 1μM, 16h
Experimental: DBP using Bim peptide was carried out as described previously [24]-[26]. After treatment with BKA-073, venetoclax (ABT-199) or DMSO control for 16h, cells were collected, washed and resuspended at 2 x 10^6 cells/ mL in mannitol experimental buffer (MEB) [150 mM D-mannitol, 10 mM HEPES-KOH (pH 7.5), 50 mM KCl, 20 μM EGTA, 20 μM EDTA, 0.1% BSA, and 5 mM succinate] as described. One volume of the 4x cell suspension was added to one volume of a 4x dye solution containing 4 μM JC-1, […] oligomycin, 0.02% digitonin, 20mM β-mercaptoethanol in MEB. The 2x cell/dye mixture was allowed to rest for 5-10 min at room temperature to allow for permeabilization and JC-1 staining. A total of 15μl of the 2x cell/dye mixture was loaded into a 384-well plate that contained 15µL of Bim BH3 peptide (0.03, 0.1, 0.3, 1, and 3 μM) in MEB, shaken for 15 s inside the reader, and the fluorescence at 590 nm monitored every 5 min for 180 min at 32 °C. The dynamic BH3 profile (∆ % Priming) was calculated as described [24]-[26].
Figure S2. BKA-073 induces mitochondrial priming and apoptosis in various type of cancers. (A) Expression levels of Bak were analyzed by Western blot in various type of cancer cell lines. (B-C) Various type of cancer cell lines were treated with BKA -073 (1µM) for 16h or 72h, followed by analysis of dynamic BH3 profiling (B) or apoptotic cell death (C), respectively. […]

[3] = test system: SCLC PDXs (TKO-2 and TKO-5); test: SCLC patient-derived xenografts, tumor growth; assay type: in vivo, Nu/Nu nude mice; conditions: 15mg/kg/d i.p., 2-4 weeks
Experimental: Six-week-old female Nu/Nu nude mice were purchased from Envigo (Indianapolis, IN) and housed under pathogen-free conditions in microisolator cages. The animal propagation protocol was approved by the Emory Institutional Animal Care and Use Committee (IACUC) and the Emory Animal Ethics Committee. 3×10^6 lung cancer cells were injected into subcutaneous tissue in the flank region of nude mice. The tumors were allowed to grow to an average volume of 150~200 mm^3 prior to initiation of therapy as previously described, [29]. Patient-derived xenografts (PDXs, TKO-002 and TKO-005) were established as part of an IRB-approved phase II co-clinical trial of arsenic trioxide in patients with relapsed SCLC who had failed standard platinum-based chemotherapy. Tumor samples were obtained by image-guided biopsy and were directly implanted into Nu/Nu nude mice without intervening propagation in plastic culture plates. Direct serial propagation of growing tumor occurred for up to 5 generations. The animal propagation protocol was approved by the Emory IACUC and the Emory Animal Ethics Committee. Mice with SCLC and NSCLC xenografts or PDXs were treated with BKA-073 intraperitoneally (i.p.) or venetoclax orally as indicated. During treatment, tumor volume (V) was measured by caliper measurements once every two days as described previously. Mice were euthanized by CO2 inhalation at the end of treatment. […]

[4] = test system: Bak oligomerization in A549 cells; test: Bak oligomerization by cross-linking with BMH; assay type: cell-based, human; conditions: 1μM, 24h, mitochondrial fraction, Western blot
Experimental: Bak oligomerization was analyzed as described. Briefly, 10 mM Bis (maleimido) hexane (BMH) was added to the mitochondrial fraction dissolved in conjugation buffer (PBS, pH7.2) and 5mM EDTA was added for crosslinking between sulfhydryl groups of Bak proteins. The reaction mixture was incubated for 1h at room temperature. The reaction was stopped by adding quench solution (1M DTT) for 15min at room temperature. The reaction product was subjected to SDS-PAGE gel and analyzed by Western blot using a Bak antibody.
A pivotal step in the apoptosis process is the oligomerization of Bak, [44]. To assess whether BKA-073 affects the ability of Bak to form oligomers in the mitochondrial membrane, a cross-linking study with Bis (maleimido) hexane (BMH) was carried out. […] These findings indicate that BKA-073 can activate Bak through its oligomerization in mitochondria. It is known that formation of Bak oligomers in mitochondria promotes cytochrome c (Cyt c) release to induce apoptosis, [46].

In the case of `COc1ccc2nc3ccccc3c(NCCNCC(C)O)c2c1` (stereo not shown) [BKA-073], the tumor growth [1] is reported as “repressed xenografts”, the “induction of mitochondrial priming” value [2] is reported as “potently induced” and the tumor growth [3] is reported as “potently suppressed tumor growth”. For the same compound, the Bak oligomerization [4] was “facilitated the formation of Bak dimers and trimers”.
